# Results taken from patent US20230322805A1, “NOVEL PYRIMIDODIAZEPINE DERIVATIVES OR USES THEREOF” (SPARK BIOPHARMA, INC., priority 2020, published 2023).
# Biological target: T1, DNAJC3 (Homo sapiens, UniProt Q13217)
# T1 sequence (Q13217 32-504): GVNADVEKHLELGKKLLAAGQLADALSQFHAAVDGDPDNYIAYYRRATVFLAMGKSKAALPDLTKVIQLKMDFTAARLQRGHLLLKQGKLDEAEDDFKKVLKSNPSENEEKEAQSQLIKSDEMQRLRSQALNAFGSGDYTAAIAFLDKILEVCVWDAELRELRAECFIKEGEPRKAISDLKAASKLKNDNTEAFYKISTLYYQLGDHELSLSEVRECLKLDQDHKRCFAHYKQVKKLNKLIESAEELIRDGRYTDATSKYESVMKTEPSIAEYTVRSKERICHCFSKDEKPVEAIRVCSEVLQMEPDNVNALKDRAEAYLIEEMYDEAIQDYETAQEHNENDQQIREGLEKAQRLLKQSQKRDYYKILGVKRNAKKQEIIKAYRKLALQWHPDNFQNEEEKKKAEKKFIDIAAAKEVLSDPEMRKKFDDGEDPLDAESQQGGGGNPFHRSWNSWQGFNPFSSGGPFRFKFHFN
# Test: TS-FITGE thermal stability shift
# Type: binding
# Set-up: endogenous in cells; host or cells: HEK293 BiFC-tau cells (TS-FITGE, CETSA)
# Conditions: 10 μM, 200 nM thapsigargin, 3 hours, HEK293 BiFC-tau cells
# Description: HEK293 BiFC-tau cells were treated with dimethylsulfoxide (DMSO, 0.1%) and a compound according to the present invention (10 μM) in the presence of thapsigargin (200 nM) for 3 hours. The cell suspension was heated at the indicated temperature range for 3 minutes and then at 25° C. for 3 minutes. The heated cells were washed with PBS and resuspended in lysis buffer A (0.4% NP-40 in PBS supplemented with protease inhibitor cocktail). For cell lysis, cell suspensions were freeze-thawed in liquid nitrogen three times. The cell lysate was washed by centrifugation at 20000 g, 4° C. for 20 minutes. Protein concentration of the soluble fraction was quantified by Pierce BCA protein assay. After precipitating 50 μg of protein with cold acetone, it was centrifuged at […] and 4° C. for 7 minutes. The residual pellet was resuspended in 10 μl of conjugation buffer (30 mM Tris-HCl at pH 8.6, 30 mM thiourea, 7 M urea and 4% w/v CHAPS). 1 μl of 0.4 mM Cy2-N-hydroxysuccinimide(Cy2-NHS) (for DMSO-treated group), Cy3-NHS (for SB1607-treated group) or Cy5-NHS (for SB1617-treated group) was mixed with the protein and incubated at 4° C. for 45 minutes. […] Protein spot locations and fluorescence signals were analyzed with DeCyder 2D software ver. […]
smiles,measurement,value
CN(Cc1ccc(Cl)cc1)c1ncnc2c1[C@@H]1OC[C@H](CN2)N1S(=O)(=O)c1ccc([N+](=O)[O-])cc1 [Compound 117],thermal stability of protein (TS-FITGE),thermal stability of the protein was improved
